Results on 30 compounds are retold here after US20210198277A1, “AMINE-SUBSTITUTED ARYL OR HETEROARYL COMPOUNDS” (Epizyme, Inc., priority 2016, published 2021).

For one test, the target named is T1, human EHMT2 913-1193 (Homo sapiens, UniProt Q96KQ7).
T1 construct: recombinant purified human EHMT2 913-1193, Viva; purchased Viva
T1 sequence (Q96KQ7 913-1193): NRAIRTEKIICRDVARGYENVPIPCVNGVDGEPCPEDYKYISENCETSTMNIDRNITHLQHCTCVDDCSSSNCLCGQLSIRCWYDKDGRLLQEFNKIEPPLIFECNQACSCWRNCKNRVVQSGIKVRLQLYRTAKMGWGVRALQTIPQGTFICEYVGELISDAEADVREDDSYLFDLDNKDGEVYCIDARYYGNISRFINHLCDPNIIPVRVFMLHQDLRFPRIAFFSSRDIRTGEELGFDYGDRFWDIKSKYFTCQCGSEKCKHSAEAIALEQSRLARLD
The experiment in a line: EHMT2 enzyme assay on histone peptide substrate (EHMT2 PEP). The following applies: Table III; read-out: EHMT2 PEP (IC50 μM). The class given is biochemical. The essentials: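 Inhibition is measured as reduced tritium incorporation into a biotinylated histone peptide from ^3H-SAM. The enzyme (0.031 nM) sees compound for 30 minutes before a 60-minute room-temperature reaction, which unlabeled SAM quenches prior to streptavidin Flashplate capture.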

The next test deals with T2, EHMT1 (Homo sapiens, UniProt Q9H9B1).
T2 sequence (Q9H9B1 1-1298): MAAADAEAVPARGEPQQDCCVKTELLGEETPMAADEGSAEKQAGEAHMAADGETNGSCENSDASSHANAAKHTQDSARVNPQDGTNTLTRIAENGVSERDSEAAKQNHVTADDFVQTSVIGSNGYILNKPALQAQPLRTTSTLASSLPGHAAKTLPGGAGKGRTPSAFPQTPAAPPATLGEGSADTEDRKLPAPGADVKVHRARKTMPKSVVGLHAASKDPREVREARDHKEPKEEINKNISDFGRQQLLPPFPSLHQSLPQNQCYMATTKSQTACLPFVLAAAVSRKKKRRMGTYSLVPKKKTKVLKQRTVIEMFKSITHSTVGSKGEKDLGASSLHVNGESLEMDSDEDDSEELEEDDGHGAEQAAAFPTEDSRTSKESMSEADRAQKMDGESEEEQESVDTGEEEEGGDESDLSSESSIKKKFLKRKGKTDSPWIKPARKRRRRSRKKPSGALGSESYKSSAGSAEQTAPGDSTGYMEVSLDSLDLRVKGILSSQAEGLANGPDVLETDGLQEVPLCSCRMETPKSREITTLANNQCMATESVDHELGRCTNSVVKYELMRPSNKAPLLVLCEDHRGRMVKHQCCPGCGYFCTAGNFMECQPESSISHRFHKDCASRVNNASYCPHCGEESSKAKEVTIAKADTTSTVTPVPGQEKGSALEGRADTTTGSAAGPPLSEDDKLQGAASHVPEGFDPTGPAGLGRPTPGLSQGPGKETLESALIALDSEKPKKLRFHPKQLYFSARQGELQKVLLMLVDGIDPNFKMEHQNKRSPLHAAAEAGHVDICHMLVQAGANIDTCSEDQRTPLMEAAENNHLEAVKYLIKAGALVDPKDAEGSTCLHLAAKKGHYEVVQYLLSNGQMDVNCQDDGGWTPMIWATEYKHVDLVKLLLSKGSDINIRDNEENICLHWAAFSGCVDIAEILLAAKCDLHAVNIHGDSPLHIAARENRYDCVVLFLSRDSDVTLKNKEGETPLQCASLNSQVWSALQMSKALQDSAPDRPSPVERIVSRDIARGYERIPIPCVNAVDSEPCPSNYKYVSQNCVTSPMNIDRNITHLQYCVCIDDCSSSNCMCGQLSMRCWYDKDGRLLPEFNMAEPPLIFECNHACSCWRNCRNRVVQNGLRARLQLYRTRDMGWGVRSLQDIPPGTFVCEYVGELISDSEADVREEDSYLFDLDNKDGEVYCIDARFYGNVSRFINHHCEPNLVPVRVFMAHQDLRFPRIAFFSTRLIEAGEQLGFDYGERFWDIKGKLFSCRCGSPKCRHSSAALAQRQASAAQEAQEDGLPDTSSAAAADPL
The experiment in a line: EHMT1 enzyme assay on peptide substrate (EHMT1 PEP). The class given is biochemical. The following applies: Table III; read-out: EHMT1 PEP (IC50 μM).

On to `CNc1cc(C)nc(Nc2ccc(OC)c(O[C@H]3C[C@@H](N(C)C)C3)c2)n1` (single isomer, unassigned) [Compound 317, N^2-(3-((1s,3s)-3-(dimethylamino)cyclobutoxy)-4-methoxyphenyl)-N^4,6-dimethylpyrimidine-2,4-diamine], for which the 50% inhibitory concentration (IC50) at human EHMT2 913-1193 is 1 to 10 µM; at EHMT1 it was greater than 10 µM.
Take `CNc1ccnc(Nc2ccc(OC)c(OC[C@@H]3CN(C)C[C@H]3C)c2)n1` (single isomer, unassigned) [Compound 438]: the concentration for half-maximal inhibition (IC50) at human EHMT2 913-1193 and at EHMT1 was greater than 10 µM throughout.
In the case of `CNc1ccnc(Nc2ccc(OC)c(OC[C@H]3CN(C)C[C@@H]3C)c2)n1` (single isomer, unassigned) [Compound 439], the IC50 on human EHMT2 913-1193 and on EHMT1 was 0.1 to 1 µM in each case.
For `CNc1ccnc(Nc2cccc(COCCN3CCCC3)n2)c1` [Compound 267, N^4-methyl-N^2-(6-((2-(pyrrolidin-1-yl)ethoxy)methyl)pyridin-2-yl)pyridine-2,4-diamine], the IC50 on human EHMT2 913-1193 and at EHMT1 was greater than 10 µM each time.
Take `CNc1cc(Nc2cccc(COCCN3CCCC3)n2)ccn1` [Compound 268, N^2-methyl-N^4-(6-((2-(pyrrolidin-1-yl)ethoxy)methyl)pyridin-2-yl)pyridine-2,4-diamine]: the 50% inhibitory concentration (IC50) at human EHMT2 913-1193 and on EHMT1 was greater than 10 µM throughout.
Take `CNc1nc(C2CCN(C)CC2)c2cc(OC)c(OCCCN3CCCC3)cc2n1` [Compound 270]: the half-maximal inhibitory concentration (IC50) on human EHMT2 913-1193 and at EHMT1 was less than 0.1 µM in each case.
As to `CNc1ccnc(Nc2ccc(OC)c(OCCCN3CC[C@H](F)C3)c2)n1` [Compound 271], the IC50 on human EHMT2 913-1193 was 1 to 10 µM; at EHMT1, 0.1 to 1 µM.
`CNc1cc(Nc2ccc(OC)c(OCCCN3CCCC3)c2)ncc1F` [Compound 272, 5-fluoro-N^2-(4-methoxy-3-(3-(pyrrolidin-1-yl)propoxy)phenyl)-N^4-methylpyridine-2,4-diamine]: the IC50 lay in the range of 0.1 to 1 µM on human EHMT2 913-1193 and 1 to 10 µM at EHMT1.
Regarding `CNc1cc(Nc2ccc(OC)c(OCCCN3CCCC3)c2)cc(C(F)(F)F)n1` [Compound 273], the 50% inhibitory concentration (IC50) at human EHMT2 913-1193 and at EHMT1 was greater than 10 µM in each case.
As for `CNc1ccnc(Nc2cccc(N3CCC(N)C3=O)c2)n1` (stereo not drawn) [Compound 274], the IC50 on human EHMT2 913-1193 and at EHMT1 was 1 to 10 µM throughout.
For the compound `CNc1ccnc(Nc2cccc(N3CCC(N(C)C)C3=O)c2)n1` (stereo not drawn) [Compound 275], the 50% inhibitory concentration (IC50) at human EHMT2 913-1193 and at EHMT1 was greater than 10 µM throughout.
`CNc1ccnc(Nc2cccc(OCC(F)CN3CCCC3)c2)n1` (stereo not drawn) [Compound 276, N^2-(3-(2-fluoro-3-(pyrrolidin-1-yl)propoxy)phenyl)-N^4-methylpyrimidine-2,4-diamine]: the IC50 was greater than 10 µM on human EHMT2 913-1193 and 1 to 10 µM on EHMT1.
With `CNc1ccnc(Nc2cccc(OCC(F)(F)CN3CCCC3)c2)n1` [Compound 277, N^2-(3-(2,2-difluoro-3-(pyrrolidin-1-yl)propoxy)phenyl)-N^4-methylpyrimidine-2,4-diamine], the 50% inhibitory concentration (IC50) at human EHMT2 913-1193 and on EHMT1 was greater than 10 µM each time.
As for `COc1ccc(Nc2nccc(NCC3CC(C)(C)NC(C)(C)C3)n2)cc1OCCCN1CCCC1` [Compound 278], the IC50 at human EHMT2 913-1193 and on EHMT1 was less than 0.1 µM each time.
Regarding `CNc1ccnc(Nc2cccc(C(C)OCCN3CCCC3)c2)n1` (stereo not drawn) [Compound 279, N^4-methyl-N^2-(3-(1-(2-(pyrrolidin-1-yl)ethoxy)ethyl)phenyl) pyrimidine-2,4-diamine], the IC50 at human EHMT2 913-1193 and at EHMT1 was greater than 10 µM in each case.
Regarding `CCN(CC)CCCOc1cc(Nc2nccc(NC)n2)ccc1OC` [Compound 280, N^2-(3-(3-(diethylamino)propoxy)-4-methoxyphenyl)-N^4-methylpyrimidine-2,4-diamine], the IC50 on human EHMT2 913-1193 and on EHMT1 was 1 to 10 µM in each case.
Turning to `CNc1ccnc(Nc2ccc(OC)c(OCCCN3CCC(S(C)(=O)=O)C3)c2)n1` (stereo not drawn) [Compound 282], the IC50 at human EHMT2 913-1193 and at EHMT1 was greater than 10 µM each time.
With `CNc1ccnc(Nc2ccc(OC)c(OCCCN3CCC(OC)C3)c2)n1` (stereo not drawn) [Compound 283, N^2-(4-methoxy-3-(3-(3-methoxypyrrolidin-1-yl)propoxy)phenyl)-N^4-methylpyrimidine-2,4-diamine], the IC50 on human EHMT2 913-1193 and on EHMT1 was less than 0.1 µM in each case.
For `CNc1ccnc(Nc2ccc(OC)c(OCCCN3CCC4(COC4)C3)c2)n1` [Compound 284], the IC50 on human EHMT2 913-1193 and on EHMT1 was greater than 10 µM each time.
`CNc1ccnc(Nc2ccc(OC)c(OCCCN3CCC(C(F)(F)F)C3)c2)n1` (stereo not drawn) [Compound 285, N^2-(4-methoxy-3-(3-(3-(trifluoromethyl)pyrrolidin-1-yl)propoxy)phenyl)-N^4-methylpyrimidine-2,4-diamine]: the IC50 at human EHMT2 913-1193 and on EHMT1 was greater than 10 µM in each case.
For the compound `CNc1ccnc(Nc2ccc(OC)c(OCCCN3CCC(O)C3)c2)n1` (stereo not drawn) [Compound 286, 1-(3-(2-methoxy-5-((4-(methylamino)pyrimidin-2-yl)amino)phenoxy)propyl)pyrrolidin-3-ol], the 50% inhibitory concentration (IC50) on human EHMT2 913-1193 is less than 0.1 µM; at EHMT1 it was 0.1 to 1 µM.
Turning to `CNc1ccnc(Nc2ccc(OC)c(OCCCN3CCC(C#N)C3)c2)n1` (stereo not drawn) [Compound 287, 1-(3-(2-methoxy-5-((4-(methylamino)pyrimidin-2-yl)amino)phenoxy)propyl)pyrrolidine-3-carbonitrile], the IC50 on human EHMT2 913-1193 and at EHMT1 was greater than 10 µM throughout.
As to `CNc1ccnc(Nc2ccc(OC)c(OCCC3CCCN3C)c2)n1` (stereo not drawn) [Compound 288, N^2-(4-methoxy-3-(2-(1-methylpyrrolidin-2-yl)ethoxy)phenyl)-N^4-methylpyrimidine-2,4-diamine], the concentration for half-maximal inhibition (IC50) on human EHMT2 913-1193 and on EHMT1 was 0.1 to 1 µM throughout.
For `CNc1ccnc(Nc2ccc(OC)c(OCC3CCCN3C)c2)n1` (stereo not drawn) [Compound 289, N^2-(4-methoxy-3-((1-methylpyrrolidin-2-yl)methoxy)phenyl)-N^4-methylpyrimidine-2,4-diamine], the figures for the half-inhibitory concentration (IC50) at human EHMT2 913-1193 and at EHMT1 were 0.1 to 1 µM and less than 0.1 µM, respectively.
Regarding `CNc1ccnc(Nc2ccc(OC)c(OCCCN3CCCC3C)c2)n1` (stereo not drawn) [Compound 290, N^2-(4-methoxy-3-(3-(2-methylpyrrolidin-1-yl)propoxy)phenyl)-N^4-methylpyrimidine-2,4-diamine], the half-inhibitory concentration (IC50) at human EHMT2 913-1193 and at EHMT1 was 0.1 to 1 µM each time.
With `CCNC(=O)c1cc(Nc2nccc(NC)n2)ccn1` [Compound 291, N-ethyl-4-((4-(methylamino)pyrimidin-2-yl)amino)picolinamide], the half-inhibitory concentration (IC50) on human EHMT2 913-1193 and on EHMT1 was greater than 10 µM throughout.
Consider `CNc1ccnc(Nc2ccc(OC)c(OCCCN3CCC(C)C3)c2)n1` (stereo not drawn) [Compound 293, N^2-(4-methoxy-3-(3-(3-methylpyrrolidin-1-yl)propoxy)phenyl)-N^4-methylpyrimidine-2,4-diamine], for which the half-maximal inhibitory concentration (IC50) on human EHMT2 913-1193 fell in the range of 1 to 10 µM; at EHMT1, 0.1 to 1 µM.
For the compound `CNc1ccnc(Nc2cccc3oc(CCN(C)C)nc23)n1` [Compound 295], the IC50 on human EHMT2 913-1193 and at EHMT1 was greater than 10 µM throughout.
Turning to `CNc1ccnc(Nc2cccc(N3CC(N)CC3=O)c2)n1` (stereo not drawn) [Compound 296], the IC50 at human EHMT2 913-1193 and on EHMT1 was greater than 10 µM each time.
Take `CNc1ccnc(Nc2cccc(N3CCC(N)C3)c2)n1` (stereo not drawn) [Compound 297]: the figures for the concentration for half-maximal inhibition (IC50) on human EHMT2 913-1193 and on EHMT1 were 1 to 10 µM and greater than 10 µM, respectively.

By IC50 is commonly meant the concentration that gives 50% inhibition.
